Converted amounts (≈) assume the structure as drawn. Counter-ions that a name gives are not always drawn. Like-named read-outs stand apart in the source and are kept apart here.
What was measured:
Assay in all cases: MIC by agar dilution method in Mueller Hinton agar
Format in all cases: cell-based
E. cloacae 908R = details: Enterobacter cloacae
Experimental: (§1) In vitro activity was determined by minimum inhibitory concentration in a microorganism spectrum by the agar dilution method in Mueller Hinton agar.

K. pneumoniae 418 = details: Klebsiella pneumoniae
Experimental: as §1

S. viridans group 016 = details: Streptococcus viridans, GROUP016
Experimental: as §1

E. faecalis 6 = details: Enterococcus faecalis
Experimental: as §1

S. aureus 734 MRSA = details: Staphylococcus aureus
Experimental: as §1

E. coli 25922 = details: Escherichia coli
Experimental: as §1

C. difficile ZH1 = details: Clostridioides difficile
Experimental: as §1

P. vulgaris 1028 = details: Proteus vulgaris
Experimental: as §1

C. freundii 902 = details: Citrobacter freundii
Experimental: as §1

L. monocytogenes BK23 = details: Listeria monocytogenes
Experimental: as §1

X. maltophilia 1AC739 = details: Stenotrophomonas maltophilia
Experimental: as §1

S. agalactiae QK44 = details: Streptococcus agalactiae
Experimental: as §1

C. freundii 43 = details: Citrobacter freundii
Experimental: as §1

S. marscescens 69438 = tested on: S. marscescens 69438
Experimental: as §1

S. aureus 6538 = details: Staphylococcus aureus
Experimental: as §1

M. catarrhalis RA21 = details: Moraxella catarrhalis
Experimental: as §1

P. aeruginosa 27853 = details: Pseudomonas aeruginosa
Experimental: as §1

H. influenzae 1 = details: Haemophilus influenzae
Experimental: as §1

B. fragilis ATCC25285 = details: Bacteroides fragilis
Experimental: as §1

Acinetobacter sp. 51-156 = details: SP.51156
Experimental: as §1

P. mirabilis 2117 = details: Proteus mirabilis
Experimental: as §1

E. cloacae 908SSi = details: Enterobacter cloacae
Experimental: as §1

[1] = tested on: P. asaccharolyticus 29743; details: Peptoniphilus asaccharolyticus
Experimental: as §1

M. morganii 6H-137 = details: Morganella morganii, 6H137
Experimental: as §1

[2] = K. pneumoniae 418, read-out: MIC
[3] = X. maltophilia 1AC739, read-out: MIC
[4] = Acinetobacter sp. 51-156, read-out: MIC
[5] = C. difficile ZH1, read-out: MIC
[6] = P. mirabilis 2117, read-out: MIC
[7] = P. vulgaris 1028, read-out: MIC
[8] = P. aeruginosa 27853, read-out: MIC
[9] = L. monocytogenes BK23, read-out: MIC
[10] = E. cloacae 908SSi, read-out: MIC

Structure (SMILES)	MIC (E. cloacae 908R; 908R)	MIC (S. viridans group 016)	MIC (S. aureus 734 MRSA; MRSA)	MIC (E. coli 25922; 25922)	MIC (P. vulgaris 1028; 1028)	MIC (C. freundii 902; 902)	MIC (L. monocytogenes BK23; BK23)	MIC (X. maltophilia 1AC739; 1AC739)	MIC (S. agalactiae QK44)	MIC (C. freundii 43; 43)	MIC (S. marscescens 69438)	MIC (S. aureus 6538; 6538)	MIC (M. catarrhalis RA21; RA21)	MIC (P. aeruginosa 27853; 27853)	MIC (B. fragilis ATCC25285; ATCC25285)	MIC (Acinetobacter sp. 51-156; Acinetobacter)	MIC (E. cloacae 908SSi; 908SSI)	MIC (K. pneumoniae 418; 418)	MIC (E. faecalis 6; 6)	MIC (C. freundii 43; C. freundii 43, read-out: MIC)	also measured
Nc1nc(/C(=N/O)C(=O)N[C@@H]2C(=O)N3C(C(=O)O)=C(/C=C4\CCN(c5cccc([N+](=O)[O-])c5)C4=O)CS[C@H]23)cs1 [B]	2 mg/L (≈ 3.42 µM)	1 mg/L (≈ 1.71 µM)	4 mg/L (≈ 6.83 µM)	0.12 mg/L (≈ 0.205 µM)	16 mg/L (≈ 27.3 µM)	0.12 mg/L (≈ 0.205 µM)	4 mg/L (≈ 6.83 µM)	> 32 mg/L	0.5 mg/L (≈ 0.854 µM)	1 mg/L (≈ 1.71 µM)	1 mg/L (≈ 1.71 µM)	0.25 mg/L (≈ 0.427 µM)	> 16 mg/L	16 mg/L (≈ 27.3 µM)	2 mg/L (≈ 3.42 µM)	16 mg/L (≈ 27.3 µM)	0.25 mg/L (≈ 0.427 µM)	–	–	–	MIC (K. pneumoniae 418; [2]): 0.25 mg/L (≈ 0.427 µM); MIC (E. faecalis 6; E. faecalis 6, read-out: MIC): 0.25 mg/L (≈ 0.427 µM); MIC (C. difficile ZH1; ZH1): 16 mg/L (≈ 27.3 µM); MIC (H. influenzae 1): 0.5 mg/L (≈ 0.854 µM); MIC (P. mirabilis 2117; 2117): 0.12 mg/L (≈ 0.205 µM)
Nc1nc(/C(=N/O)C(=O)N[C@@H]2C(=O)N3C(C(=O)O)=C(/C=C4\CCN(c5ccc(O)c(F)c5)C4=O)CS[C@H]23)cs1 [C, (6R,7R)-7-[(Z)-2-(2-Amino-thiazol-4-yl)-2-(hydroxyimino-acetylamino]-3-[(E)-1-(3-fluoro-4-hydroxy-phenyl)-2-oxo-pyrrolidin-3-ylidenemethyl]-8-oxo-5-thia-1-azabicyclo[4.2.0]oct-2-ene-2-carboxylic acid trifluoroacetate]	–	0.12 mg/L	4 mg/L	0.12 mg/L	8 mg/L	0.12 mg/L	1 mg/L	–	0.06 mg/L	–	1 mg/L	0.5 mg/L	–	4 mg/L	–	–	0.5 mg/L	0.12 mg/L	1 mg/L	4 mg/L	MIC (E. cloacae 908R; E. cloacae 908R, read-out: MIC): 32 mg/L; MIC (X. maltophilia 1AC739; [3]): > 32 mg/L; MIC (Acinetobacter sp. 51-156; [4]): 32 mg/L
Nc1ccc(CN2CC/C(=C\C3=C(C(=O)O)N4C(=O)[C@@H](NC(=O)/C(=N\O)c5csc(N)n5)[C@H]4SC3)C2=O)cc1 [D, (6R,7R)-7-[(Z)-2-(2-Amino-thiazol-4-yl)-2-(hydroxyimino-acetylamino]-3-[(E)-1-(4-aminobenzyl)-2-oxo-pyrrolidin-3-ylidenemethyl]-8-oxo-5-thia-1-azabicyclo[4.2.0-]oct-2-ene-2-carboxylic acid trifluoroacetate]	> 32 mg/L	0.5 mg/L	8 mg/L	–	> 32 mg/L	–	4 mg/L	> 32 mg/L	0.25 mg/L	8 mg/L	1 mg/L	1 mg/L	4 mg/L	> 32 mg/L	8 mg/L	32 mg/L	0.5 mg/L	0.25 mg/L	1 mg/L	–	MIC (E. coli 25922; E. coli 25922, read-out: MIC): 0.25 mg/L; MIC (C. difficile ZH1; [5]): 16 mg/L; MIC (C. freundii 902; C. freundii 902, read-out: MIC): 0.25 mg/L; MIC [1]: 1 mg/L; MIC (P. mirabilis 2117; [6]): 0.12 mg/L; MIC (M. morganii 6H-137; M. morganii 6H-137, read-out: MIC): 0.12 mg/L
Nc1nc(/C(=N/O)C(=O)N[C@@H]2C(=O)N3C(C(=O)O)=C(/C=C4\CCN(Cc5cccc(O)c5)C4=O)CS[C@H]23)cs1 [E, (6R,7R)-7-[(Z)-2-(2-Amino-thiazol-4-yl)-2-(hydroxyimino-acetylamino]-3-[(E)-1-(3-hydroxybenzyl)-2-oxo-pyrrolidin-3-ylidenemethyl]-8-oxo-5-thia-1-azabicyclo[4.2.0]oct-2-ene-2-carboxylic acid trifluoroacetate]	–	0.5 mg/L	–	–	–	0.25 mg/L	2 mg/L	> 32 mg/L	0.12 mg/L	–	0.5 mg/L	–	2 mg/L	8 mg/L	8 mg/L	32 mg/L	0.5 mg/L	0.25 mg/L	0.5 mg/L	4 mg/L	MIC (E. cloacae 908R; E. cloacae 908R, read-out: MIC): 8 mg/L; MIC (S. aureus 734 MRSA; S. aureus 734 MRSA, read-out: MIC): 16 mg/L; MIC (C. difficile ZH1; [5]): 4 mg/L; MIC (P. vulgaris 1028; [7]): 16 mg/L; MIC (S. aureus 6538; S. aureus 6538, read-out: MIC): 0.5 mg/L
Nc1nc(/C(=N/O)C(=O)N[C@@H]2C(=O)N3C(C(=O)O)=C(/C=C4\CCN(c5nncs5)C4=O)CS[C@H]23)cs1 [F, (6R,7R)-7-[(Z)-2-(2-Amino-thiazol-4-yl)-2-hydroxyimino-acetylamino]-8-oxo-3-[(E)-2-oxo-1-(1,3,4-thiadiazol-2-yl)-pyrrolidin-3-ylidenemethyl]-5-thia-1-aza-bicyclo[4.2.0]oct-2-ene-2-carboxylic acid trifluoracetate (1:1)]	> 32 mg/L	0.5 mg/L (≈ 0.911 µM)	16 mg/L (≈ 29.2 µM)	0.12 mg/L (≈ 0.219 µM)	> 32 mg/L	0.12 mg/L (≈ 0.219 µM)	4 mg/L (≈ 7.29 µM)	> 32 mg/L	0.25 mg/L (≈ 0.456 µM)	–	32 mg/L (≈ 58.3 µM)	1 mg/L (≈ 1.82 µM)	> 16 mg/L	–	–	> 32 mg/L	1 mg/L (≈ 1.82 µM)	0.25 mg/L (≈ 0.456 µM)	1 mg/L (≈ 1.82 µM)	8 mg/L (≈ 14.6 µM)	MIC (P. aeruginosa 27853; [8]): > 32 mg/L; MIC (P. mirabilis 2117; [6]): 0.25 mg/L (≈ 0.456 µM); MIC (M. morganii 6H-137): 0.5 mg/L (≈ 0.911 µM)
Nc1nc(/C(=N/O)C(=O)N[C@@H]2C(=O)N3C(C(=O)O)=C(/C=C4\CCN(C5CCNCC5)C4=O)CS[C@H]23)cs1 [G, (6R,7R)-7-[(Z)-2-(2-Amino-thiazol-4-yl)-2-hydroxyimino-acetylamino]-8-oxo-3-[(E)-2-oxo-1-piperidin-4-yl-pyrrolidin-3-ylidenemethyl]-5-thia-1-aza-bicyclo[4.2.0-]oct-2-ene-2-carboxylic acid hydrochloride (1:2)]	–	–	8 mg/L	–	> 32 mg/L	–	–	> 32 mg/L	0.25 mg/L	2 mg/L	1 mg/L	1 mg/L	2 mg/L	–	16 mg/L	32 mg/L	–	–	1 mg/L	–	MIC (E. cloacae 908R; E. cloacae 908R, read-out: MIC): 4 mg/L; MIC (C. difficile ZH1; ZH1): 16 mg/L; MIC (L. monocytogenes BK23; [9]): 4 mg/L; MIC (P. aeruginosa 27853; [8]): 8 mg/L; MIC [1]: 1 mg/L; MIC (E. cloacae 908SSi; [10]): 0.25 mg/L
Nc1nc(/C(=N/O)C(=O)N[C@@H]2C(=O)N3C(C(=O)O)=C(/C=C4\CCN(Cc5nc6ccccc6[nH]5)C4=O)CS[C@H]23)cs1 [H, (6R,7R)-7-[(Z)-2-(2-Amino-thiazol-4-yl)-2-hydroxyimino-acetylamino]-3-[(E)-1-(1H-benzimidazol-2-ylmethyl)-2-oxo-pyrrolidin-3-ylidenemethyl]-8-oxo-5-thia-1-aza-bicyclo[4.2.0]oct-2-ene-2-carboxylic acid trifluoracetate (1:1:1)]	4 mg/L (≈ 6.73 µM)	0.5 mg/L (≈ 0.841 µM)	8 mg/L (≈ 13.5 µM)	0.12 mg/L (≈ 0.202 µM)	16 mg/L (≈ 26.9 µM)	–	4 mg/L (≈ 6.73 µM)	> 32 mg/L	0.25 mg/L (≈ 0.42 µM)	2 mg/L (≈ 3.36 µM)	1 mg/L (≈ 1.68 µM)	1 mg/L (≈ 1.68 µM)	4 mg/L (≈ 6.73 µM)	–	–	> 32 mg/L	0.5 mg/L (≈ 0.841 µM)	–	2 mg/L (≈ 3.36 µM)	–	MIC (K. pneumoniae 418; [2]): 0.12 mg/L (≈ 0.202 µM); MIC (C. difficile ZH1; ZH1): 16 mg/L (≈ 26.9 µM); MIC (C. freundii 902; C. freundii 902, read-out: MIC): 0.12 mg/L (≈ 0.202 µM); MIC (P. aeruginosa 27853; [8]): > 32 mg/L; MIC (B. fragilis ATCC25285; B. fragilis ATCC25285, read-out: MIC): 8 mg/L (≈ 13.5 µM); MIC [1]: 1 mg/L (≈ 1.68 µM); MIC (P. mirabilis 2117; [6]): 0.25 mg/L (≈ 0.42 µM); MIC (M. morganii 6H-137): 0.25 mg/L (≈ 0.42 µM)
CO/N=C(\C(=O)N[C@@H]1C(=O)N2C(C(=O)O)=C(CSc3nc(=O)c(=O)[nH]n3C)CS[C@H]12)c1csc(N)n1 [II, reference compound]	> 32 mg/L	–	> 32 mg/L	–	–	–	–	–	–	–	–	4 mg/L (≈ 7.21 µM)	–	–	–	–	–	–	–	32 mg/L (≈ 57.7 µM)	MIC (S. viridans group 016; S. viridans group 016, read-out: MIC): 0.25 mg/L (≈ 0.451 µM); MIC (E. faecalis 6; E. faecalis 6, read-out: MIC): > 32 mg/L; MIC (P. vulgaris 1028; [7]): 0.12 mg/L (≈ 0.216 µM); MIC (C. freundii 902; C. freundii 902, read-out: MIC): 0.25 mg/L (≈ 0.451 µM); MIC (L. monocytogenes BK23; [9]): > 16 mg/L; MIC (X. maltophilia 1AC739; [3]): > 32 mg/L; MIC (S. marscescens 69438; S. marscescens 69438, read-out: MIC): 0.25 mg/L (≈ 0.451 µM); MIC (M. catarrhalis RA21; M. catarrhalis RA21, read-out: MIC): 1 mg/L (≈ 1.8 µM); MIC (P. aeruginosa 27853; [8]): 16 mg/L (≈ 28.9 µM); MIC (Acinetobacter sp. 51-156; [4]): 32 mg/L (≈ 57.7 µM); MIC (E. cloacae 908SSi; [10]): 0.25 mg/L (≈ 0.451 µM)
